Converted amounts (≈) assume the structure as drawn. Like-named read-outs stand apart in the source and are kept apart here.
Experiments:
[1] = Microsome clearance assay, rat; assay type: in vitro ADME; settings: 0.5 mg/ml protein, 1 mM NADPH, 60 minutes; for Rat Liver Microsome Clint (μL/min/mg protein): rat liver microsomes, 5 μM; for microsomal CLint at 5 μM: male, Wister, rat, pooled liver microsomes, pH 7.4, rat liver microsomes, read-out: Rat Liver Microsome Clint (μL/min/mg protein)
In short: (§1)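 Pooled liver microsomes (human, male Wistar rat, male CD-1 mouse) at 0.5 mg/ml protein in 0.1M sodium phosphate pH 7.4 with 5 μM test compound and 1 mM NADPH, incubated 60 minutes. Reactions quenched in ice-cold methanol; supernatant analysed by LC/MS/MS (electrospray).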

[2] = target: Mcl-1 protein (residues 171-323) (Homo sapiens (Human), UniProt Q07820); assay: Inhibition of Mcl-1 by fluorescence polarization (FP) competitive binding assay with FAM-Bid tracer; settings: 2 nM FAM-Bid, 20 nM Mcl-1, 30 min, read-out: Mc1-1 (FP)
In short: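 Competitive FP binding of compounds against FAM-Bid tracer (final 2 nM) on Mcl-1 (final 20 nM) in PBS with 0.01% BGG and 0.01% Triton X-100, 5% final DMSO.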

[3] = Microsome clearance assay, human; assay type: in vitro ADME; settings: 0.5 mg/ml protein, 1 mM NADPH, 60 minutes; for Human Liver Microsome Clint (μL/min/mg protein): human liver microsomes, 5 μM; for microsomal CLint at 5 μM: human, pooled liver microsomes, pH 7.4, human liver microsomes, read-out: Human Liver Microsome Clint (μL/min/mg protein)
In short: as §1

MV-4-11 cells = assay: MV-4-11 cell viability assay, CCK-8; assay type: cell-based
Procedure: MV-4-11 cells were obtained from American Type Culture Collection (ATCC). […]
The effect of representative Compounds of the Disclosure on cell viability was determined using Cell Counting Kit-8 (CCK-8) assay according to the manufacturer's instructions. 95 μL of MV-4-11 cell suspension (20000 cells/well) in culture medium were seeded into 96-well plates and cultured 4 hrs. Each tested compound was serially diluted in DMSO, then 5 μL of the compound or DMSO was diluted in 95 μL medium once more. At last, 5 μL of the compound dilution was added to the corresponding well of the cell plate. After the addition of the tested compound, the cells were incubated at 37° C. in an atmosphere of 5% CO2 for 24 hrs. At the end, 10 μL of CCK-8 solution was added to each well of the plate and incubated for 1-4 hrs. The plates were read at 450 nm on the microplate reader (BioTek Synergy 1MF). The readings were normalized to the vehicle cells, and the IC50 was calculated by nonlinear regression analysis using GraphPad Prism 6 software.

OPM-2 cells = assay: Cell viability assay (OPM-2 cells), CCK-8; assay type: cell-based; settings: 5% FBS
In short: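 OPM-2 myeloma cells (20000/well) incubated with serially diluted compound for 24 h at 37 °C, 5% CO2. Viability read by CCK-8 (4 h) absorbance at 450 nm, normalised to vehicle; IC50 from nonlinear regression.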

[4] = Microsome clearance assay, mouse; assay type: in vitro ADME; settings: 0.5 mg/ml protein, 1 mM NADPH, 60 minutes; for Mouse Liver Microsome Clint (μL/min/mg protein): mouse liver microsomes, 5 μM; for microsomal CLint at 5 μM: male, CD-1, mouse, pooled liver microsomes, pH 7.4, mouse liver microsomes, read-out: Mouse Liver Microsome Clint (μL/min/mg protein)
In short: as §1

NCI-H929 cells = assay: Cell viability assay (NCI-H929 cells), CCK-8; assay type: cell-based; settings: 5% FBS
In short: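 NCI-H929 cells (20000/well) exposed to serially diluted compounds for 24 h at 37 °C, 5% CO2. Viability by CCK-8, absorbance at 450 nm after 1-4 h, normalized to vehicle-treated cells. IC50 by nonlinear regression.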

[5] = Kinetic solubility assay in PBS buffer; assay type: physicochemical; settings: for solubility: PBS buffer, pH 6.5, aqueous buffer, thermodynamic from solid, read-out: Solubility (pH 6.5, μg/mL)
Procedure: Representative Compounds of the Disclosure were tested in a kinetic solubility assay in PBS buffer. PBS buffer was prepared by dissolving 4.86 g of potassium dihydrogen phosphate and 5.09 g of disodium hydrogen phosphate dodecahydrate in 1 L of ultrapure water (final pH 6.5). 0.5 mg of test sample was dissolved in 1 mL of methanol and the stock solution was transferred into 2 mL EP tube, and evaporated at 50° C. for 3 h. To the tube was added 1 mL of PBS buffer and the mixture was stirred and shaken for 1-2 h. The solution was allowed to stand overnight and then filtered before HPLC analysis. Another 1.5 mg of the sample was dissolved in 3 mL of methanol to prepare a calibration curve with a series of concentration range of 5-500 μM. The solubility of each sample was determined by the measured peak area in HPLC.

[6] = read-out: MV-4-11 IC50 (5% FBS), MV-4-11 cells, 5% FBS, 24 hrs, CCK-8
[7] = Homo sapiens, MV4-11, 24 h, read-out: MV-4-11 IC50 (5% FBS, nM), MV-4-11 cells, 5% FBS, 24 hrs, CCK-8

Sequence of Mcl-1 protein (residues 171-323) (Q07820 171-323): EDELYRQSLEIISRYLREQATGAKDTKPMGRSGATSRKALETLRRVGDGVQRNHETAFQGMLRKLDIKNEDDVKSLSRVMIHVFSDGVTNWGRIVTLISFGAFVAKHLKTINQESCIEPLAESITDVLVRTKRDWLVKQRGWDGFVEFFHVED

| Compound | Rat Liver Microsome Clint (μL/min/mg protein) [1] [μL/min/mg protein] | IC50 [2] [nM] | Human Liver Microsome Clint (μL/min/mg protein) [3] [μL/min/mg protein] | IC50 (MV-4-11 cells; [6]) [nM] | IC50 (OPM-2 cells; 24 hours) [nM] | Mouse Liver Microsome Clint (μL/min/mg protein) [4] [μL/min/mg protein] | IC50 (NCI-H929 cells; 24 hrs) [nM] | microsomal CLint at 5 μM [1] [µL/min/mg] | microsomal CLint at 5 μM [3] [µL/min/mg] | IC50 (MV-4-11 cells; [7]) [nM] | IC50 (OPM-2 cells; Homo sapiens, OPM-2, 24 h) [nM] | microsomal CLint at 5 μM [4] [µL/min/mg] | IC50 (NCI-H929 cells; Homo sapiens, NCI-H929, 24 h) [nM] | solubility [5] [µg/mL] | Solubility (pH 6.5, μg/mL) ([5]; PBS buffer pH 6.5) [μg/mL] |
| --- | --- | --- | --- | --- | --- | --- | --- | --- | --- | --- | --- | --- | --- | --- | --- |
| Cc1c(C(=O)O)n2c3ccc(Cl)c(c13)-c1c(nn(C)c1C)CSCc1cc(n(C)n1)CSc1cc(c3ccc(F)cc3c1)OCCC2 (atropisomer, axis not shown) [Cpd. No. 15, (R)-(Z)-1^5-chloro-9^6-fluoro-1^3,2^1,2^5,6^1-tetramethyl-1^1H,2^1H,6^1E-10-oxa-4,8-dithia-1(4,1)-indola-2(4,3),6(3,5)-dipyrazola-9(3,1)-naphthalenacyclotridecaphane-1^2-carboxylic acid] | 19.6 | 2 | <2.8 | 5.4 | 52 | 28.0 | 19 |  |  |  |  |  |  |  |  |
| Cc1c2c(nn1C)CSCc1cc(n(C)n1)CSc1cc(c3ccccc3c1)OCCCc1c(C(=O)O)n(C)c3c-2c(Cl)ccc13 [AZD5991, (Z)-16-chloro-11,21,25,61-tetramethyl-11H,21H,61H-10-oxa-4,8-dithia-1(7,3)-indola-2(4,3),6(3,5)-dipyrazola-9(3,1)-naphthalenacyclotridecaphane-12-carboxylic acid, reference compound] |  |  |  |  |  |  |  | 16.6 | < 2.8 | 29 | 148 | 20.8 | 47 | < 1 |  |
| Cc1c(C(=O)O)n2c3ccc(Cl)c(c13)-c1c(nn(C)c1C)CSCc1cc(n(C)n1)CSc1cc(c3ccccc3c1)OCCC2 [Cpd. No. 5, (Z)-1^5-chloro-1^3,2^1,2^5,6^1-tetramethyl-1^1H,2^1H,6^1H-10-oxa-4,8-dithia-1(4,1)-indola-2(4,3), 6(3,5)-dipyrazola-9(3,1)-naphthalenacyclotridecaphane-1^2-carboxylic acid] | 58.8 | 17 | 15.8 |  | 192 | 48.4 | 33 |  |  | 43 |  |  |  |  | 2 |
| Cc1c(C(=O)O)n2c3ccc(Cl)c(c13)-c1c(nn(C)c1C)CSCc1cc(n(C)n1)CSc1cc(c3ccc(F)cc3c1)OCCC2 [Cpd. No. 14, (Z)-1^5-chloro-9^6-fluoro-1^3,2^1,2^5,6^1-tetramethyl-1^1H,2^1H,6^1E-10-oxa-4,8-dithia-1(4,1)-indola-2(4,3),6(3,5)-dipyrazola-9(3,1)-naphthalenacyclotridecaphane-1^2-carboxylic acid] | 27.2 | 19 | 5.0 | 28 | 52 | 28.6 | 28 |  |  |  |  |  |  | 10 (≈ 14.5 µM) |  |
| Cc1c(C(=O)O)n2c3ccc(Cl)c(c13)-c1c(nn(C)c1C(F)F)CSCc1cc(n(C)n1)CSc1cc(c3ccc(F)cc3c1)OCCC2 [Cpd. No. 18, (Z)-1^5-chloro-2^5-(difluoromethyl)-9^6-fluoro-1^3,2^1,6^1-trimethyl-1^1H,2^1H,6^1H-10-oxa-4,8-dithia-1(4,1)-indola-2(4,3),6(3,5)-dipyrazola-9(3,1)-naphthalenacyclotridecaphane-1^2-carboxylic acid] |  | 15 |  |  |  |  |  | 22.6 | 22.2 | 93 | 189 | 42 | 63 | < 1 |  |

From patent publication US11691989B2, “Macrocyclic indoles as Mcl-1 inhibitors” (ASCENTAGE PHARMA (SUZHOU) CO., LTD., priority 2018, dated 2023)
